Where two headings read alike, the source gives them in different places.
Tests used:
[1] = system: Fluc-int-UGA construct in HEK293FT cells; experiment: Amino-acid identification assay (mass spectrometry); assay type: cell-based, human; conditions: 25 µM DAP
Source text: To elucidate the molecular mechanism of DAP-promoted UGA readthrough, mass spectrometry was used to identify the amino acid incorporated at the PTC position into firefly luciferase synthesized from the Fluc-int-UGA construct. […] The luciferase protein was digested with […] to generate a PTC-position-containing peptide compatible with mass spectrometry analysis. Using this approach, we found only one amino acid, tryptophan, incorporated at the PTC position in the peptide of interest (Fig. 5a).
Firefly luciferase from HEK293FT cells transfected with the Fluc-int-UGA construct was immunoprecipitated and digested with trypsin. The MS/MS spectrum of the peptide containing the PTC position and the sequence determination are shown. […] Readthrough efficiency was determined by measuring luciferase activity in HeLa cells co-transfected with the firefly luciferase construct described in Fig. 1b and with increasing amounts of an expression vector for either FTSJ1 or CTU1 (0.5, 1, or 2 µg). […] A molecular weight marker is indicated to the left of each gel. p-values (p) were calculated using Student’s t-test. […]
Sixty million HEK293FT cells were transfected with 120 µg Fluc-int-UGA construct with CaCl2 in HBSS buffer. […] The immunoprecipitate was subjected to 10% SDS–PAGE and then firefly luciferase was detected by Coomassie staining. […]

[2] = system: Calu-6 cell tumors (TP53 UGA nonsense mutation) in nude mice; assay type: in vivo; design: tumor size, Average: unit not given here
Procedure: For each experimental condition, 7 mice were used. b Fourteen nude mice were injected with Calu-6 cells to promote tumor development. […] The arrow indicates the starting time of the exposure to DMSO or DAP. For each experimental condition, 7 mice were used. […] GAPDH was used as loading control. A molecular weight marker is indicated to the left of the gel. The results presented in this figure are representative of two independent experiments. p-values (p) were calculated using Student’s t-test. Source data are provided as a Source Data file.
Next, the capacity of DAP to correct UGA nonsense mutations in vivo was assessed in a mouse model. Four-week-old immunodeficient nude mice were injected with an identical number of Calu-6 cells carrying a UGA nonsense mutation in the TP53 gene, of HCC-GR6 cells having a wild-type TP53 gene or of p53-null 4T1 cells. […] The slower growth of Calu-6-cell-derived tumors in DAP-treated mice is thus likely due to rescue of p53 protein synthesis in these tumors, as expected on the basis of our cell culture experiments and as observed after western-blotting applied to protein extracts of tumors from DAP-treated mice (Supplementary Fig. 8B). Because of the small size of the Calu-6 tumors in DAP-treated mice and thus the high probability of collecting mouse cells upon tumor excision, quantitation of p53 was done in another experiment.
To initiate tumor growth, 6-week-old nude mice received subcutaneously 10 million cells suspended in PBS. […] Tumors were measured three times weekly for 5 weeks to determine the tumor volume by the following formula: l (mm) × L (mm) × L (mm). The tumors were then collected and a fraction was used for western blot analysis after protein extraction. All in vivo experiments complied with all relevant ethical regulations for animal testing and research and were authorized by the Ethic Committee 075 under the number 12971-2018010815336092.

[3] = system: Calu-6 cell tumors in nude mice; experiment: In vivo established Calu-6 tumors: tumor size and p53 western blot; design: species or system mouse; conditions: DAP for 1 week after tumor size about 0.4 cm^3

## Nc1nc(N)c2[nH]cnc2n1 [DAP, 2,6-diaminopurine]
[1]
  Amino acid incorporated at the PTC position: tryptophan
[2]; Calu-6, day 4, average of 7 mice
  tumor size, Average: 0.07457
[2]; Calu-6, day 6, average of 7 mice
  tumor size, Average: 0.06657
[2]; Calu-6, day 9, average of 7 mice
  tumor size, Average: 0.067
[2]; Calu-6, day 11, average of 7 mice
  tumor size, Average: 0.05029
[2]; Calu-6, day 13, average of 7 mice
  tumor size, Average: 0.039
[2]; Calu-6, day 16, average of 7 mice
  tumor size, Average: 0.037
[2]; Calu-6, day 18, average of 7 mice
  tumor size, Average: 0.03471
[2]; Calu-6, day 20, average of 7 mice
  tumor size, Average: 0.06171
[2]; Calu-6, day 23, average of 7 mice
  tumor size, Average: 0.07814
[2]; Calu-6, day 25, average of 7 mice
  tumor size, Average: 0.06286
[2]; Calu-6, day 27, average of 7 mice
  tumor size, Average: 0.07829
[2]; Calu-6, day 30, average of 7 mice
  tumor size, Average: 0.09486
[2]; Calu-6, day 32, average of 7 mice
  tumor size, Average: 0.1364
[2]; Calu-6, day 34, average of 7 mice
  tumor size, Average: 0.1461
[2]; Calu-6, day 37, average of 7 mice
  tumor size, Average: 0.1584
[2]; Calu-6, day 39, average of 7 mice
  tumor size, Average: 0.2454
[2]; Calu-6, day 41, average of 7 mice
  tumor size, Average: 0.2229
[2]; Calu-6, nude mice, force-fed daily, 5 weeks
  Tumor growth vs DMSO, in words: strongly impaired tumor growth
[2]; mouse, in vivo, po
  Toxicity in a mouse model: no detectable toxicity
[3]
  p53 protein in tumors (western blot): detected in tumors isolated from DAP-fed

From paper PMC7083880 (Nature Communications, 2020)
